Measurements reported in article PMC10108347, “Heterobifunctional Ligase Recruiters Enable pan-Degradation of Inhibitor of Apoptosis Proteins” (Journal of Medicinal Chemistry, 2023).
Where “and” joins values, the source holds several entries; their conditions need not be identical. Identical values can stand only once. Like-named read-outs stand apart in the source and are kept apart here.

Columns and labels:
[1] = system: IAPs (cIAP1, cIAP2, XIAP); test: Immunoblotting of IAPs in MM.1S cells, overall degradation profile, time course and washout; type: cell-based; settings: for IAP degradation profile (in words): 16 h, western blot, concentration (10 nM to 1 μM); for time to complete degradation of cIAP1, cIAP2 and XIAP: 0.1 μM, time course
Method: Next, we examined the persistence of IAP degradation in MM.1S cells after a single exposure to 1 μM of 9 and subsequent removal of the compound. […] The reliance on CRL2^VHL was assessed with a neddylation inhibitor MLN4924, which blocks the activity of CRLs (Figure S13A).

RPMI-8826 = test: CellTiter-Glo cell viability assay, RPMI-8826; type: cell-based
MOLM13 = test: CellTiter-Glo cell viability assay, MOLM13; type: cell-based; settings: Homo sapiens
MM.1S cells proteome = test: diaPASEF quantitative proteomics in MM.1S cells: proteome-wide degradation selectivity (other proteins); type: cell-based, human; settings: for Precursor intensity (DIA-NN), CLPX precursor AAAAADLANR2: CLPX_HUMAN (O76031), ATP-dependent Clp protease ATP-binding subunit clpX-like, mitochondrial; for Precursor intensity (DIA-NN), SAMD1 precursor AAAAAATAPPSPGPAQPGPR2: SAMD1_HUMAN (Q6SPF0), Atherin; for Precursor intensity (DIA-NN), ZFP91 precursor AAAAAAAAAVSR2: ZFP91_HUMAN (Q96JP5), E3 ubiquitin-protein ligase ZFP91
Method: To analyze the proteome-wide degradation selectivity of hetero-PROTACs 9, 25, and 27, a diaPASEF-based mass spectrometry approach was employed.[54] MM.1S cells were treated with 100 nM PROTACs for 3 h. […] Accordingly, global proteomic plots show the mathematically imputed levels of IAP proteins in treatment groups if the corresponding IAP was detected in the control treatment (see also Experimental Section).
MM1s cells were treated with DMSO or 0.1 μM of compound for 3 h. The cells were harvested by centrifugation and washed with phosphate-buffered saline before snap-freezing in liquid nitrogen. The cells were lysed by addition of lysis buffer (8 M urea, 50 mM NaCl, 50 mM 4-(2-hydroxyethyl)-1-piperazine-ethanesulfonic acid (EPPS) pH 8.5, protease, and phosphatase inhibitors) and homogenization by bead beating (BioSpec) for three repeats of 30 s at 2400. Bradford assay was used to determine the final protein concentration in the clarified cell lysate. 50 μg of protein for each sample was reduced, alkylated, and precipitated using methanol/chloroform as previously described,[64] and the resulting washed precipitated protein was allowed to air dry. The precipitated protein was resuspended in 4 M urea, 50 mM HEPES pH 7.4, followed by dilution to 1 M urea with the addition of 200 mM EPPS, pH 8. […] The LysC digestion was diluted to 0.5 M urea with 200 mM EPPS pH 8, followed by digestion with trypsin (1:50; enzyme/protein) for 6 h at 37 °C. Sample digests were acidified with formic acid to a pH of 2–3 prior to desalting using C18 solid-phase extraction plates (SOLA, Thermo Fisher Scientific). Desalted peptides were dried in a vacuum centrifuge and reconstituted in 0.1% formic acid for LC–MS analysis.
Data were collected using a TimsTOF Pro2 (Bruker Daltonics, Bremen, Germany) coupled to a nanoElute LC pump (Bruker Daltonics, Bremen, Germany) via a CaptiveSpray nanoelectrospray source. […] Peptides were separated using a 50 min gradient of 2–30% buffer B (acetonitrile in 0.1% formic acid) with a flow rate of 250 nL/min and column temperature maintained at 50 °C.
Data-Dependent Acquisition (DDA) was performed in the Parallel Accumulation-Serial Fragmentation (PASEF) mode to determine effective ion mobility windows for downstream diaPASEF data collection.[54] The diaPASEF parameters included 100% duty cycle using accumulation and ramp times of 50 ms each, 1 TIMS-MS scan, and 10 PASEF ramps per acquisition cycle. The TIMS-MS survey scan was acquired between 100–1700 m/z and 1/K0 of 0.7–1.3 V × s/cm^2. Precursors with 1–5 charges were selected, and those that reached an intensity threshold of 20,000 arbitrary units were actively excluded for 0.4 min. The quadrupole isolation width was set to 2 m/z for m/z < 700 and 3 m/z for m/z > 800, with the m/z between 700 and 800 m/z being interpolated linearly. […] To perform diaPASEF, the precursor distribution in the DDA m/z-ion mobility plane was used to design an acquisition scheme for DIA data collection, which included two windows in each 50 ms diaPASEF scan. Data was acquired using 16 of these 25 Da precursor double window scans (creating 32 windows), which covered the diagonal scan line for doubly and triply charged precursors, with singly charged precursors able to be excluded by their position in the m/z-ion mobility plane. These precursor isolation windows were defined between 400–1200 m/z and 1/K0 of 0.7–1.3 V × s/cm^2.
The diaPASEF raw file processing and controlling peptide and protein level false discovery rates, assembling proteins from peptides, and protein quantification from peptides were performed using library-free analysis in DIA-NN 1.8.[65] The library-free mode performs an in silico digestion of a given protein sequence database alongside deep learning-based predictions to extract the DIA precursor data into a collection of MS^2 spectra.

[2] = Log D7.4 measurement by chromatographic (fast-gradient HPLC) method; settings: pH 7.4
Method: The system was calibrated by plotting the retention times of six different drugs (atenolol, metoprolol, labetalol, diltiazem, triphenylene, and permethrin) versus their literature-known log D7.4 in a calibration line (R^2 = 0.99). Subsequently, the mean retention times of the analytes were taken to calculate their log D7.4 values with the aid of the calibration line. At least two independent measurements of each analyte were performed.

[3] = precursor charge 2, per-replicate values (rep1, rep2)
[4] = MM.1S cells, 0.1 μM, 3 h, log2 fold change compound vs CTRLs (limma)
[5] = RL4_HUMAN (P36578), 60S ribosomal protein L4, precursor charge 1, per-replicate values (rep1, rep2)
[6] = precursor charge 2, per-replicate values (rep1, rep2), listed as Gue3582
[7] = precursor charge 2, per-replicate values (rep1, rep2), listed as SAB141

In the case of CN[C@@H](C)C(=O)N[C@@H](C(=O)N1CCC[C@H]1C(=O)N[C@@H]1c2ccccc2C[C@@H]1OCC#CC#CCO[C@H]1Cc2ccccc2[C@H]1NC(=O)[C@@H]1CCCN1C(=O)[C@H](NC(=O)[C@H](C)NC)C1CCCCC1)C1CCCCC1 [AZD5582, reference compound], the “IAP degradation profile (in words)” value [1] is reported as “potent cIAP autodegradation”, the IC50 (RPMI-8826; SI csv, head prints only the cell line, no quantity or unit, values parallel Table 1/S8, read-out: RPMI-8826) is reported as 470 nM and the IC50 (MOLM13; MOLM-13, SI csv, head prints only the cell line, no quantity or unit, values parallel Table 1/S8, read-out: MOLM13) is reported as 2 nM. For the same compound, the “Precursor intensity (DIA-NN), CLPX precursor AAAAADLANR2” value (MM.1S cells proteome; [3]) was 16915 and 25995.2, the “logFC ATP5MD” value (MM.1S cells proteome; [4]) was -0.4905 and the “logFC CD44” value (MM.1S cells proteome; [4]) was -0.09493. For the same compound, the “logFC EDF1” value (MM.1S cells proteome; [4]) was -0.1747, the “logFC GOT2” value (MM.1S cells proteome; [4]) was -0.1164 and the “logFC RRP15” value (MM.1S cells proteome; [4]) was -0.3053. For the same compound, the “Precursor intensity (DIA-NN), RPL4 precursor AAAAAAALQAK1” value (MM.1S cells proteome; [5]) was 331.845, the “Precursor intensity (DIA-NN), RPL4 precursor AAAAAAALQAK2” value (MM.1S cells proteome; RL4_HUMAN (P36578), 60S ribosomal protein L4, precursor charge 2, per-replicate values (rep1, rep2)) was 447305 and 464651 and the “Precursor intensity (DIA-NN), SAMD1 precursor AAAAAATAPPSPGPAQPGPR2” value (MM.1S cells proteome; [3]) was 15006.1 and 13237.9. The “Precursor intensity (DIA-NN), ZFP91 precursor AAAAAAAAAVSR2” value (MM.1S cells proteome; [3]) was 67729.2 and 74323 and the chromatographic logD [2] was 4.1.
With CN[C@@H](C)C(=O)N[C@H](C(=O)N1C[C@@H](Oc2cccc(OCCCCC(=O)N[C@H](C(=O)N3C[C@H](O)C[C@H]3C(=O)N[C@@H](C)c3ccc(-c4scnc4C)cc3)C(C)(C)C)c2)C[C@H]1C(=O)N[C@@H]1CCCc2ccccc21)C1CCCCC1 [PROTAC 9, (2S,4S)-1-((S)-2-Cyclohexyl-2-((S)-2-(methylamino)propanamido)acetyl)-4-(3-((5-(((S)-1-((2S,4R)-4-hydroxy-2-(((S)-1-(4-(4-methylthiazol-5-yl)phenyl)ethyl)carbamoyl)pyrrolidin-1-yl)-3,3-dimethyl-1-oxobutan-2-yl)amino)-5-oxopentyl)oxy)phenoxy)-N-((R)-1,2,3,4-tetrahydronaphthalen-1-yl)pyrrolidine-2-carboxamide] the “time to complete degradation of cIAP1, cIAP2 and XIAP” value [1] was at most 3 h, the “IAP degradation profile (in words)” value [1] was “induces cIAP1, cIAP2, XIAP, and VHL30 degradation in a dose-dependent manner” and the “persistence of IAP degradation after washout (in words)” value ([1]; single exposure to 1 μM for 16 h, then compound removal) was “nearly full and stable pan-degradation of IAPs up to 72 h”. The IC50 (RPMI-8826; MM cell line, 96 h, TNFα-challenged, read-out: IC50 cell viability RPMI-8826) was 2540 nM, the IC50 (MOLM13; MOLM-13, AML cell line, 96 h, TNFα-challenged, read-out: IC50 cell viability MOLM13) was 2.1 nM and the “Precursor intensity (DIA-NN), CLPX precursor AAAAADLANR2” value (MM.1S cells proteome; [6]) was 27158.9 and 21797.6. For the same compound, the “logFC EIF1AX” value (MM.1S cells proteome; [4]) was 0.2289, the “logFC SIGMAR1” value (MM.1S cells proteome; [4]) was 0.1571 and the “logFC TAF15” value (MM.1S cells proteome; [4]) was 0.09552. The “logFC TOP1” value (MM.1S cells proteome; [4]) was 0.1861, the “Precursor intensity (DIA-NN), RPL4 precursor AAAAAAALQAK1” value (MM.1S cells proteome; RL4_HUMAN (P36578), 60S ribosomal protein L4, precursor charge 1, per-replicate values (rep1, rep2), listed as Gue3582) was 83.0044 and 593.705 and the “Precursor intensity (DIA-NN), RPL4 precursor AAAAAAALQAK2” value (MM.1S cells proteome; RL4_HUMAN (P36578), 60S ribosomal protein L4, precursor charge 2, per-replicate values (rep1, rep2), listed as Gue3582) was 450548 and 462008. The “Precursor intensity (DIA-NN), SAMD1 precursor AAAAAATAPPSPGPAQPGPR2” value (MM.1S cells proteome; [6]) was 15172 and 13054.7 and the “Precursor intensity (DIA-NN), ZFP91 precursor AAAAAAAAAVSR2” value (MM.1S cells proteome; [6]) was 70631.3 and 75175.8.
With CN[C@@H](C)C(=O)N[C@H](C(=O)N1C[C@@H](Oc2cccc(OCCOCCCCCCOCCCCCCNc3cccc4c3C(=O)N(C3CCC(=O)NC3=O)C4=O)c2)C[C@H]1C(=O)N[C@@H]1CCCc2ccccc21)C1CCCCC1 (stereo partly drawn) [PROTAC 25, (2S,4S)-1-((S)-2-Cyclohexyl-2-((S)-2-(methylamino)propanamido)acetyl)-4-(3-(2-((6-((6-((2-(2,6-dioxopiperidin-3-yl)-1,3-dioxoisoindolin-4-yl)amino)hexyl)oxy)hexyl)oxy)ethoxy)phenoxy)-N-((R)-1,2,3,4-tetrahydronaphthalen-1-yl)pyrrolidine-2-carboxamide] the “time to complete degradation of cIAP1, cIAP2 and XIAP” value [1] was at most 3 h, the “IAP degradation profile (in words)” value [1] was “pronounced pan-IAP depletion and Complete cIAP1 and XIAP depletion occurred already at 10 nM and 0.1 μM concentration was needed for the complete depletion of all IAPs” and the IC50 (RPMI-8826; read-out: RPMI-8826) was 1520 nM. The IC50 (MOLM13; MOLM-13, read-out: MOLM13) was 52 nM, the “Precursor intensity (DIA-NN), CLPX precursor AAAAADLANR2” value (MM.1S cells proteome; [7]) was 7987.33 and 21462.9 and the “logFC COX5A” value (MM.1S cells proteome; [4]) was -0.5474. For the same compound, the “logFC LMAN2” value (MM.1S cells proteome; [4]) was -0.1147, the “logFC TOP1” value (MM.1S cells proteome; [4]) was 0.3058 and the “Precursor intensity (DIA-NN), RPL4 precursor […]1” value (MM.1S cells proteome; [5]) was 321.394. The “Precursor intensity (DIA-NN), RPL4 precursor […]2” value (MM.1S cells proteome; RL4_HUMAN (P36578), 60S ribosomal protein L4, precursor charge 2, per-replicate values (rep1, rep2), listed as SAB141) was 467864 and 464908, the “Precursor intensity (DIA-NN), SAMD1 precursor AAAAAATAPPSPGPAQPGPR2” value (MM.1S cells proteome; [7]) was 14133.9 and 10400.6 and the “Precursor intensity (DIA-NN), ZFP91 precursor AAAAAAAAAVSR2” value (MM.1S cells proteome; [7]) was 72214.7 and 61349. The chromatographic logD [2] was 6.
For CN[C@@H](C)C(=O)N[C@H](C(=O)N1C[C@@H](Oc2cccc(OCCCCCCOCCCCCCOCCCCCCNc3cccc4c3C(=O)N(C3CCC(=O)NC3=O)C4=O)c2)C[C@H]1C(=O)N[C@@H]1CCCc2ccccc21)C1CCCCC1 (stereo partly drawn) [PROTAC 27, (2S,4S)-1-((S)-2-Cyclohexyl-2-((S)-2-(methylamino)propanamido)acetyl)-4-(3-((6-((6-((6-((2-(2,6-dioxopiperidin-3-yl)-1,3-dioxoisoindolin-4-yl)amino)hexyl)oxy)hexyl)oxy)hexyl)oxy)phenoxy)-N-((R)-1,2,3,4-tetrahydronaphthalen-1-yl)pyrrolidine-2-carboxamide], the “IAP degradation profile (in words)” value [1] was “isoform-selective XIAP degradation”, the “logFC COX6C” value (MM.1S cells proteome; [4]) was -0.5143 and the “logFC EIF4B” value (MM.1S cells proteome; [4]) was -0.1592. The “logFC HNRNPA2B1” value (MM.1S cells proteome; [4]) was -0.1781, the “logFC POTEJ” value (MM.1S cells proteome; [4]) was -0.3899 and the “logFC TPM3” value (MM.1S cells proteome; [4]) was -0.214. For the same compound, the chromatographic logD [2] was 7.2.
